Earlier results on five compounds are cited in patent publication US4162311A, “Medicinal preparation with pronounced vegetotropic and antiepileptic effect for treating psychoneurotic disorders” (priority 1977, dated 1979).

Each structure is given as a SMILES string.

The conditions of data set [1]: cited from earlier work; for effect of other treatments: aforesaid diseases; for vegetotropic and antiepileptic effect: among tranquilizers; for relaxing effect and sluggishness: taken over prolonged periods of time.
Data set [2] deals with convulsant effects of corasole and caffeine. The conditions noted are these: mice; comparison drug; cited from earlier work.

Consider `[Mg+2].[O-2]` [magnesia], for which the “effect of other treatments” value in data set [1] was “only a limited and short-lived effect”.
In the case of `COC(=O)[C@H]1[C@H]2C[C@@H]3c4[nH]c5cc(OC)ccc5c4CCN3C[C@H]2C[C@@H](OC(=O)c2cc(OC)c(OC)c(OC)c2)[C@@H]1OC` [reserpine], the “sensitivity to convulsant effects of corasole and caffeine” value in data set [2] is “increases the sensitivity of mice”.
Consider `CN1C(=O)CN=C(c2ccccc2)c2cc(Cl)ccc21` [diazepam], for which, in data set [1], the “vegetotropic and antiepileptic effect” value is “most pronounced vegetotropic and antiepileptic effect”; the “relaxing effect and sluggishness” value is “manifest a relaxing effect and produce sluggishness”.
Turning to `CNC1=Nc2ccc(Cl)cc2C(c2ccccc2)=[N+]([O-])C1` [chlorodiazepoxide], in data set [1], the “vegetotropic and antiepileptic effect” value is “most pronounced vegetotropic and antiepileptic effect”; the “relaxing effect and sluggishness” value is “manifest a relaxing effect and produce sluggishness”.
With `CCN(CC)CCOC(=O)c1ccc(N)cc1` [novocain], the “effect of other treatments” value in data set [1] is “only a limited and short-lived effect”.
